Values quoted from earlier work, collected in patent US20070154935A1, “HUMAN OBESITY SUSCEPTIBILITY GENE AND USES THEREOF” (INTEGRAGEN, priority 2002, published 2007).

Experiments:
healthy controls = conditions: intranasal application
[1] = tested on: massively obese child with leptin deficiency mutation; conditions: one child with leptin deficiency mutation

Substance | body fat mass (healthy controls) | plasma leptin concentrations (healthy controls) | weight (healthy controls) | treatment outcome of morbid obesity [1]
adrenocorticotropin4-10 (MEHFRWG; Corticotropin; UniProt P01189 141-147, looked up, fragment) [ACTH4-10] | reduced | reduced | reduced | –
recombinant leptin: recombinant leptin given to a child with a leptin deficiency mutation | – | – | – | treated successfully
